Laboratory results taken from patent US20230276804A1, “A PESTICIDALLY ACTIVE MIXTURE COMPRISING PYRAZOLOPYRIDINE ANTHRANILAMIDE COMPOUND, OXIDES OR SALTS THEREOF” (priority 2020, published 2023).
Values joined by “and” are separate entries in the source; they are usually repeats but may differ in a detail not shown here. Identical values can stand only once.

How the values were obtained:
Format in all cases: in vivo
Spodoptera litura [1] = experiment: Diet incorporation method against Spodoptera litura (Example B); settings: single compound, 1 ppm, 96 h
Method: The diet incorporation method was used, in which semi-synthetic diet was incorporated into the test solution consisting either of the single compound or respective compound combinations, when the temperature was approximately 50° C. in the bioassay containers, then stirred thoroughly for proper mixing and allowed to cool for 30 min. The solidified diet was cut into equal pieces, and then each piece was transferred into one cell of the bio-assay trays. A single starved third instar larva was released into each of these cells of the bio-assay trays and the tray was covered with a lid. The bio-assay trays were kept under laboratory conditions at a temperature of 25° C. and relative humidity of 70%. Observations on dead, moribund and live larvae were recorded 96 h after the release. Percent mortality was calculated by combining dead and moribund larvae and comparing the result with the one of the untreated control. The results are shown for the compound of formula (I-III) in Table B.

Helicoverpa armigera = experiment: Leaf dip method (tomato leaves) with Bacillus thuringiensis against Helicoverpa armigera (Example D); settings: single, 0.1 ppm, 72 h
Method: (§1) The leaf dip method was used, wherein the required quantity of the compounds were weighed and dissolved in a test solution prepared in tubes. The tubes were put on a vortex at 2000 rpm for 90 min for proper mixing and then, for the single compounds, diluted with a 0.01% Triton-X solution, for the combinations, diluted with a 0.01% Triton-X solution containing formulated Bt, to get the desired test concentrations. Tomato leaves were dipped in the solution for 10 seconds, shade dried for 20 min and then transferred to single cells of the bioassay trays. A single third instar larva was released into each cell and the tray was covered with a lid. The bio-assay trays were kept under laboratory conditions at a temperature of 25° C. and relative humidity of 70%. Observations on dead, moribund and live larvae were recorded at 72 h after the release. Percent mortality was calculated by combining dead and moribund larvae and comparing the result to the one of the untreated control. The results have been described for compound of formula (I-III) in Table D.

Spodoptera litura [2] = experiment: Leaf dip method (tomato leaves) with Bacillus thuringiensis against Spodoptera litura (Example E); settings: single, 0.1 ppm, 72 h
Method: as §1, with “test concentration.” for “test concentrations.”, “the results” for “the result”, “Table E.” for “Table D.”

Phakopsora pachyrhizi = experiment: Preventive glasshouse test against Phakopsora pachyrhizi in soybean (Example H); settings: single compound
Method: The single compounds or the respective compound combinations were dissolved in 2% dimethyl sulfoxide/acetone and then mixed with water containing an emulsifier to a calibrated spray volume of 50 ml. The test solutions were poured into spray bottles for further applications.
To test the preventive activity of compounds, healthy young Soybean plants, raised in the greenhouse, were sprayed with the active compound preparation at the stated application rates inside the spray cabinets using hollow cone nozzles. One day after treatment, the plants were inoculated with a suspension containing 2×10^5 Phakopsora pachyrhizi conidia. The inoculated plants were then kept in a greenhouse chamber at a temperature of 22-24° C. and 80-90% relative humidity for disease expression.
A visual assessment of the performance of the single compounds and respective compound combinations was carried out by rating the disease severity (0-100% scale) on treated plants 3, 7, 10 and 15 days after application. Efficacy (% control) of the compounds was calculated by comparing the disease rating in the treatment with the one of the untreated control. The compounds were also assessed for their plant compatibility by recording symptoms like necrosis, chlorosis and stunting. The results have been described for the compound of formula (I-III) in Table H.

6-(3-bromo-1-(3-chloropyridin-2-yl)-1H-pyrazole-5-carboxamido)-N-isopropyl-5-methylpyrazolo[1,5-a]pyridine-7-carboxamide [Compound (I-III)]
Observed Efficacy (%) (Spodoptera litura [1]): 12.5% and 25% | Observed Efficacy (%) (Helicoverpa armigera): 12.5% | Observed Efficacy (%) (Spodoptera litura [2]): 0% | Observed Efficacy (%) (Phakopsora pachyrhizi; 100 ppm): 25% | Observed Efficacy (%) (Phakopsora pachyrhizi; 500 ppm): 56%
